Laboratory results from patent US8663604B2, “Method for measuring neurotransmitters in vivo” (The Regents of the University of California, priority 2007, dated 2014).

How the values were obtained:
[1] = biological target: T1, M1 muscarinic acetylcholine receptor (Rattus norvegicus, UniProt P08482); assay: In vitro two-photon FRET response of M1-TN-XXL neurofluocytes to bath-applied neurotransmitters; type: cell-based; conditions: ACh applied at 10 nM to 10 μM via bath perfusion
T1 construct: expressed in transfected cells
T1 sequence (P08482 1-460): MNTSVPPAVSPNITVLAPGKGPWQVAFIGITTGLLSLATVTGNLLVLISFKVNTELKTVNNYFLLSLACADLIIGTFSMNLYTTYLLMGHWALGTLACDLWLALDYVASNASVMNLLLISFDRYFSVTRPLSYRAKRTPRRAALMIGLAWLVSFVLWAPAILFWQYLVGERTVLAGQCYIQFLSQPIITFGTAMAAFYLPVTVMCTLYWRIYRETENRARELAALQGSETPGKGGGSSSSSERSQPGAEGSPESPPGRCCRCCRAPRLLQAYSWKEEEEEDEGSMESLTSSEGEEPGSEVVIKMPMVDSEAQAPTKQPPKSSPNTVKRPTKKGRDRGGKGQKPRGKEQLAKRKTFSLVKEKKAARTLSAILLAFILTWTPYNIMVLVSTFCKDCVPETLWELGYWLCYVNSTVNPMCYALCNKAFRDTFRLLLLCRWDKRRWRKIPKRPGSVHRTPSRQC
Description: The state of each cell is imaged with in vivo two-photon laser scanning microscopy (TPLSM). In another implementation, HEK293 cells were transfected with the Ca^2+-coupled M1 muscarinic receptor and the genetically encoded FRET-based Ca^2+ biosensor TN-XXL. In the presence of acetylcholine (ACh), a M1-mediated Ca^2+ increase is transduced by TN-XXL into a FRET-based optical signal.
ACh-neurofluocytes expressing a muscarinic receptor and fluorescent protein. […] These cells are referred to here as M1-TN-XXL neuro-fluocytes. HEK-293 cells were transduced with lentiviruses modified to carry the M1 muscarinic acetylcholine receptor or the TN-XXL FRET intracellular calcium indicator as transgenes. Clonal cells were selected subsequently based on the highest response to acetylcholine in vitro.
M1-TN-XXL neurofluocytes. ACh-neurofluocytes were tested in vitro for their sensitivity to acetylcholine. […] FIG. 2a provides a diagram of the detection mechanism.

muscarinic receptors = assay: Response of implanted neurofluocytes to NBM stimulation after intracerebral injection of antagonist
Description: Urethane-anesthetized rats were injected with HEK293 cells loaded with Calcium Green in the cerebral cortex and a bipolar stimulating electrode was implanted in NBM together with ECoG-recording electrodes to detect desynchronization in cerebral cortex upon NBM stimulation.
A similar set of experiments was conducted with stably transfected M1-TN-XXL neurofluocytes.

[2] = biological target: T2, ionotropic receptor 5-HT3A (Rattus norvegicus, UniProt P35563); assay: In vitro response of HEK cells transiently cotransfected with 5-HT3A and TN-XXL to bath-applied serotonin; type: cell-based; conditions: 3-10 μm serotonin applied in the bath
T2 construct: expressed in transfected cells; host or cells: HEK cells, transient co-transfection with TN-XXL
T2 sequence (P35563 24-483): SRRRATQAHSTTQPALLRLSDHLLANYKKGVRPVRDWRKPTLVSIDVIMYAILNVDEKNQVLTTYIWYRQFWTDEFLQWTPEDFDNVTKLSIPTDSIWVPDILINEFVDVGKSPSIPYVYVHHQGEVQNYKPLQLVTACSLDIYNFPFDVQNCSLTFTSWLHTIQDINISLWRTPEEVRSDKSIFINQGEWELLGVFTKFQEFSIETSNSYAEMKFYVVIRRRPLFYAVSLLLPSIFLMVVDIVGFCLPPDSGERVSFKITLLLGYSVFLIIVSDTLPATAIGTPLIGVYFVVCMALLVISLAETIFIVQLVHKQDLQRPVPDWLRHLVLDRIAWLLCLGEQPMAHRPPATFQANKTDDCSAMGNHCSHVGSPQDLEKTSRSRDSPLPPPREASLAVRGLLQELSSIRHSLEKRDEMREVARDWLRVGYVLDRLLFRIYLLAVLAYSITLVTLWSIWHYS

SMILES	FRET response / sensitivity of ACh-neurofluocytes to neurotransmitter [1]	effect on responses of neurofluocytes to NBM stimulation (muscarinic receptors)	response of 5-HT3A/TN-XXL cells [2]
NCCCC(=O)O [GABA]	insensitive	–	–
CN1[C@@H]2CC[C@H]1C[C@@H](OC(=O)C(CO)c1ccccc1)C2 (stereo partly shown) [atropine]	–	abolished	–
NCCc1ccc(O)c(O)c1 [dopamine]	insensitive	–	–
N[C@@H](CCC(=O)O)C(=O)O [glutamate]	insensitive	–	–
NC[C@H](O)c1ccc(O)c(O)c1 [norepinephrine]	insensitive	–	–
NCCc1c[nH]c2ccc(O)cc12 [serotonin]	insensitive	–	responded robustly
